From US6613572B2, “Agent for expression of long-term potentiation of synaptic transmission comprising compound having brain somatostatin activation property” (priority 1999, dated 2003)

How the values were obtained:
[1] = tested on: voltage-dependent calcium channel of hippocampus pyramidal cell; experiment: Effect of somatostatin and compound 1 on voltage-dependent Ca2+ current of rat hippocampus pyramidal cell; type: cell-based; conditions: compound 1 10^-7 M plus somatostatin 10^-7 M
Description: Hippocampal slices were prepared from the brains of 5- to 14-day-old male Wistar rats and the nerve cells were quickly isolated by trypsin enzyme treatment method. According to the whole cell patch-clamp method, the membrane potential of hippocampus pyramidal cell was fixed at −80 mV and the membrane potential-dependent […] current (Ica) was measured in Cs^+ electrode inner solution and Ba^2+ bath outer solution. The resistance of the electrode was 2-4 MΩ. Compound 1 was added to bath outer solution concentrations of 0.01 μM, 0.1 μM and 1.0 μM, respectively, and perfused with the bath outer solution. Nothing was added to the bath outer solution for the control group. The maximal value of the current (peak amplitude) was measured, and calculated as the variation (%) relative to the value before addition of compound 1. Each value (%) was expressed by mean±S.E.M. The number of measurements was 7. The property of compound 1 was evaluated by Dunnett's multiple comparison test relative to the control group. […]

rat hippocampal slice = experiment: Somatostatin release from rat hippocampal slice upon high K+ (50 mM) stimulation, radioimmunoassay; type: cell-based; conditions: property significant at 10^-7 M and 10^-6 M vs control (Dunnett)
Description: Rat hippocampal slices (thickness 350 μm, round slice) were prepared by a standard method. Twenty rat hippocampal slices were placed in a perfusion chamber, incubated at 37° C. and perfused by a batch method while exchanging the incubation buffer every 10 minutes. The incubation buffer used had the composition as noted below. A mixed gas of oxygen (95%) and carbon dioxide (5%) was used to saturate the buffer. Composition of incubation buffer: NaCl, 124 mM; KCl, 5 mM; KH2PO4, 1.24 mM; MgSO4, 1.3 mM; CaCl2, 2.4 mM; NaHCO3, 26 mM; D-glucose, 10 mM
Perfusion for 150 minutes gave fractions 1-15. To fraction 9 was applied a high K^+ (50 mM) stimulation. Compound 1 was added to fractions 7-15 to the concentration of 10^−9 M, 10^−7 M, […], 10^−6 M, respectively. […] The respective fractions thus obtained were concentrated by lyophilization and somatostatin in the perfusate was quantified by radioimmunoassay (RIA). After the completion of the experiment, somatostatin remaining in the slices was extracted by a conventional method and quantified by radioimmunoassay. The somatostatin amount released by high K^+ (50 mM) stimulation was calculated and the amount of somatostatin released due to the property of compound 1 was measured.
Somatostatin release (%) by compound 1 at each concentration was calculated as in the following. […] The number of the test samples measured was 10 or 11. […]

[2] = tested on: mossy fiber-CA3 field pyramidal cell of hippocampal slice; experiment: LTP in mossy fiber-CA3 field pyramidal cell of hippocampal slice, population spikes after tetanic stimulation; type: cell-based, guinea pig
Description: Slices (thickness 500 μm, round slice) were prepared from hippocampus removed from male Hartley guinea pigs (body weight 220-350 g) and population spikes were extracellularly recorded. The hippocampal slices were perfused with an artificial cerebrospinal fluid (33-34° C., composition: NaCl, 124 mM; KCl, 5 mM; KH2PO4, 1.24 mM; MgSO4, 1.3 mM; CaCl2, 2.4 mM; NaHCO3, 26 mM; D-glucose, 10 mM) saturated with a mixed gas of oxygen (95%) and carbon dioxide (5%) at flow rate of 1.8-2.0 ml/min. Mossy fiber was stimulated with a stimulating electrode at a voltage of not more than 10 V, frequency of 0.2 Hz and the population spikes in the CA3 field pyramidal cell layer was recorded every 5 minutes. When the population spikes to be recorded were stabilized, tetanic stimulation for induction of LTP was applied. The tetanic stimulation includes stimulation at the same voltage of not more than 10 V, as when the stimulation was applied at a frequency of 0.2 Hz, but upon increase of the frequency to 33 Hz for 5 seconds. The height of from negative peak to the next positive peak of the obtained population spikes after stimulation was measured and taken as an amplitude (population spike amplitude; PSA). The degree of LTP was expressed by a potential variation (%) by the increase in the amplitude of population spikes after tetanic stimulation relative to the average of 4 measurements of the amplitudes of population spikes obtained before tetanic stimulation. Each value was expressed by mean±S.E.M (the number of slices tested was 3 to 8). As the index of the property of a drug, the area (%·min) between the graph from 12 minutes to 62 minutes after tetanic stimulation and the line where the potential variation is 0%, in the time lapse graph of potential variation, was calculated and taken as the magnitude of LTP. Compound 1 was dissolved in and diluted with distilled water and added to perfusate to the concentration of 10^−9 M, 10^−8 M, 10^−7 M and 10^−6 M, respectively, and applied to a hippocmpal slice for […] from 2 minutes before the tetanic stimulation to 4 minutes thereafter. Nothing was added to perfusate for control group.
The property of compound 1 relative to the magnitude of LTP was tested by one-way analysis of variance and Dunnett's multiple comparison test.

[3] = tested on: voltage-dependent calcium channel of hippocampus pyramidal cells; experiment: Voltage-dependent Ca2+ current of rat hippocampus pyramidal cell, whole cell patch-clamp; type: cell-based
Description: Hippocampal slices were prepared from the brains of 5- to 14-day-old male Wistar rats and the nerve cells were quickly isolated by trypsin enzyme treatment method. According to the whole cell patch-clamp method, the membrane potential of hippocampus pyramidal cell was fixed at −80 mV and the membrane potential-dependent […] current (Ica) was measured in Cs^+ electrode inner solution and Ba^2+ bath outer solution. The resistance of the electrode was 2-4 MΩ. Compound 1 was added to bath outer solution concentrations of 0.01 μM, 0.1 μM and 1.0 μM, respectively, and perfused with the bath outer solution. Nothing was added to the bath outer solution for the control group. The maximal value of the current (peak amplitude) was measured, and calculated as the variation (%) relative to the value before addition of compound 1. Each value (%) was expressed by mean±S.E.M. The number of measurements was 7. The property of compound 1 was evaluated by Dunnett's multiple comparison test relative to the control group.

In the case of `CC(=O)N1CCN(NC(=O)c2ccc(F)cc2)CC1.O` [Compound 1, N-(4-acetyl-1-piperazinyl)-p-fluorobenzamide monohydrate], the “suppressive property of somatostatin on calcium current in the presence of compound 1” value [1] is reported as “completely released”, the “somatostatin release (%)” value (rat hippocampal slice) is reported as “promoted somatostatin release” and the “potential variation after tetanic stimulation (magnitude of LTP, 12 to 62 min)” value ([2]; at 10^-7 M and 10^-6 M) is reported as “increased potential variation”. The “response of base before tetanic stimulation (potential variation)” value ([2]; before tetanic stimulation, compound applied to slice in perfusate) was “no significant influence”, the “LTP enhancing property in hippocampal slice from guinea pig treated with cysteamine” value ([2]; cysteamine 200 mg/kg, compound 1 at 10^-7 M) was “did not show LTP enhancing property” and the “concentration at which the action on LTP was maximal” value ([2]; tested at 10^-9 to 10^-6 M) was 10^−7 M. The “membrane potential-dependent calcium current (variation of peak amplitude)” value ([3]; 0.01 μM, 0.1 μM and 1.0 μM, compared to control group, holding -80 mV) was “significantly promoted” and the “shape of dose dependency of the calcium current promotion” value ([3]; 0.01 to 1.0 μM) was “bell-shape dose dependency”.
